Measured values reported in patent US5891890A, “Benzamide derivatives, anti-ulcer drug, and antibacterial drug” (Shiseido Co., Ltd., priority 1997, dated 1999).

Tests used:
[1] = MTT: Cell Damaging and Protecting Effect Test; type: cell-based, male Japanese White rabbit; conditions: rabbit, gastric corpus mucosa cells, final concentration 10^-4 M, 37° C., smaller value is better, read-out: MTT: cell damaging rate
From the text: MTT: Cell Damaging and Protecting Effect Test
It is confirmed that there is no toxicity in cell level. Those having a toxicity in cell level are inappropriate as an anti-ulcer drug.
A male Japanese White rabbit (2.5 to 3 kg) was anesthetized to death by Nembutal™ and, immediately thereafter, its stomach was removed. The greater curvature of the stomach was incised so as to remove the stomach contents therefrom. After the mucosal surface was washed with HBSS (Hanks' Balanced Salt Solution), the stomach in ice-cooled HBSS was transferred to a laboratory. […]
The sample compound was dissolved in DMSO so as to attain a concentration of 10^-2 M and then diluted with HBSS containing 2% of Ultrocer G™ so as to attain a final concentration of 10^-4 M. To each group, which 8 wells were used for, 10 μl of MTT reagent was added immediately after 100 μl of the medium in each well was exchanged for same volume of the resulting solution of the sample compound. […] Then, the absorbance (OD: 570 to 630) was measured by a microplate reader. […]
The cell damaging or cell protecting effect of the sample compound at the final concentration of 10^-4 M was expressed as cell damaging rate (%) as follows:
cell damaging rate (%)=(1-(absorbance in sample group/absorbance in control […]

[2] = tested on: stress ulcer formation; experiment: WIS: Restraint and Water Immersion Stress-Induced Ulcer Inhibition Test; type: in vivo, male Crj:SD or Slc:SD rats; conditions: 100 mg/kg oral, 10 min before 7 h restraint and water immersion (21° C.), SD rats
Method: WIS: Restraint and Water Immersion Stress-Induced Ulcer Inhibition Test
The degree of inhibition of the stress ulcer formation is tested.
Male Crj:SD or Slc:SD rats (6 to 7-week-old) were fasted overnight, but allowed free access to water. Each group has 5 to 8 of these rats. The sample compound was dissolved or suspended in an aqueous solution of 0.3% sodium carboxymethylcellulose or 0.05% Tween 80 and then was orally administered (100 mg/10 ml/kg). To a control group, the vehicle was administered. 10 minutes later, the rats were placed in a stress cage and immersed to the level of xipfoid process in a water bath (21° C.) for 7 hours. At the end of the stress, the rats were sacrificed by inhalation of ether or carbon dioxide. Then, the stomach of each was removed, inflated by injecting 10 ml of 5% formalin neutral buffer solution, and immersed in 1% formalin neutral buffer solution for 30 minutes or more to be fixed. The stomach was incised along the greater curvature and then the length of each erosion in the glandular portion was determined under dissecting microscope. The sum of the length of erosions per stomach was defined as ulcer index (UI).
The effect obtained when 100 mg/kg of the sample compound had been administered was expressed as ulcer formation inhibitory rate (%) as follows:
ulcer formation inhibitory rate (%)=(1-(UI in sample group/UI in control

[3] = tested on: isolated gastric fundic gland (histamine-stimulated acid secretion); experiment: CAP: Acid Secretion Inhibition Test In Vitro ([14C]-aminopyrine uptake); type: cell-based, male Japanese White rabbit; conditions: Oryctolagus cuniculus, 40 min, final concentration 10^-5 M, histamine 10^-5 M, 37° C., read-out: CAP: acid secretion inhibitory rate
Method: CAP: Acid Secretion Inhibition Test In Vitro
The acid secretion inhibitory activity in a cell level is studied. It can also be used for studying the mechanism of the effect. […]
ii-a) Preparation of isolated gastric fundus gland suspension
First, an isolated gastric fundic gland sample was prepared. Namely, a male Japanese White rabbit (2.5 to 3 kg) was anesthetized to death with Nembutal™ and then the abdomen was incised. Immediately thereafter, the stomach was removed and, after its pyloric and cardiac antrum were severed, incised along its greater curvature into two sheets. […]
Into 70 ml of the nutrient solution containing 1 mg/ml of collagenase, minced mucosal pieces were dispersed and intensely stirred in a conical flask with a stirrer at 37° C. for 40 to 60 minutes. During this period, 100% O2 was sprayed on the nutrient solution surface and the pH was appropriately measured such that it was immediately adjusted to pH 7.4, when the value was therebelow, with a base. […] The number of cells was counted under microscope and adjusted to 1.6×10^6 cells/ml. […]
Then, [^14 C]-aminopyrine uptake test was performed. […] The gland pellet was completely dried as the tube with its lid being opened was kept for one night in a drying oven at 80° C. and then the lid was closed and the weight was determined at room temperature. […]

Row | Structure (SMILES) | cytotoxicity at 4 h, 100 µM [1] [%] | WIS: ulcer formation inhibitory rate [2] [%] | inhibition at 10 µM [3] [%]
1 | CC(C)Cc1cc(C(=O)NCCCOc2cccc(CN3CCCCC3)c2)ccc1OCc1ccc(F)cc1 [Example 1] | -3 | 55 | 104
2 | CC(C)=CCC/C(C)=C/COc1ccc(C(=O)NCCCOc2cccc(CN3CCCCC3)c2)cc1 [Example 2] | 49 | 62 | 102
